Data set [1] concerns Staphylococcus aureus (ATCC 25923). Briefly: MIC testing of peptides in solution, Gram-positive. It counts as cell-based. The following applies: peptide in solution, LB media, 18 hr 37° C., 1×10^5 CFU. From the text:
(§1) Bacteria and media: Bacterial strains were obtained from the American Type Culture Collection (ATCC, Manassas, Va.) Staphylococcus aureus (ATCC 25923) and Escherichia coli (ATCC 11229) were used for bacterial Gram-positive and Gram-negative challenges, respectively. Luria-Bertani (LB) media (Difco Laboratories, Detroit, Mich.), prepared as per the manufacturer's specifications, was used as a bacterial growth and dilution medium for preparation of bacteria for Gram-positive and Gram-negative challenges.
Peptides: Peptides Chr-1, Chr-3, Chr-1 Truncated, and Chr-3 Truncated were obtained from Biosynthesis, Inc. (Lewisville, Tex.). Peptides were synthesized then purified by HPLC, Peptides arrived lyophilized, and were resuspended in sterile H2O. For minimum inhibitory concentration (MIC) testing, this suspension was added to media as described below. […]
Bacterial challenge: MIC testing: To determine the minimum inhibitory concentration (MIC) of peptides, compounds were weighed and dissolved in sterile water. […] Log phase cells were harvested by centrifugation, counted on a hemocytometer using bright field microscopy, pelleted by centrifugation at 4000×g for 10 min, and resuspended in a 0.5% NaCl solution at a concentration of 1×10^7 cfu/mL. […] MIC was determined to be the lowest concentration of biocide that prevented visible bacterial growth at 18 hr.

The next data set concerns Escherichia coli. Briefly: MIC testing of peptides in solution, Gram-negative. The format is cell-based. The conditions noted are these: peptide in solution, LB media, 18 hr 37° C., 1×10^5 CFU.
Data set [2] deals with Staphylococcus aureus (ATCC 25923). Briefly: Surface testing (log kill) of peptide-containing acrylic coatings, Gram-positive. The conditions noted are these: for Surface antimicrobial activity of coating (in words), Gram-positive / Gram Positive Sample 1 Log Kill / Gram Positive Sample 2 Log Kill / Gram Positive Sample 3 Log Kill / Gram Positive Average Log Kill: 1% (w/w) peptide in acrylic coating; for Gram Positive Sample 1 Log Kill / Gram Positive Sample 2 Log Kill / Gram Positive Sample 3 Log Kill / Gram Positive Average Log Kill: 2 hr contact; for Gram Positive Sample 1 Log Kill / Gram Positive Sample 2 Log Kill / Gram Positive Sample 3 Log Kill: 1×10^5 bacteria; for Gram Positive Average Log Kill: average of triplicate. It counts as cell-based.
Source text: as §1
(§2) Peptides: Peptides Chr-1, Chr-3, Chr-1 Truncated, and Chr-3 Truncated were obtained from Biosynthesis, Inc. (Lewisville, Tex.). Peptides were synthesized then purified by HPLC, Peptides arrived lyophilized, and were resuspended in sterile H2O. For minimum inhibitory concentration (MIC) testing, this suspension was added to media as described below. For surface challenges, this peptide mixture was added to a commercial acrylate coating resin system at 1% (w/w) solids based on the solids of the polymer.
(§3) Coating preparation: Films were prepared by combining 25 mg of the respective peptide with 4.95 g acrylate resin (Minwax® Polycrylic®, a water borne polyacrylate resin, 50% w/w solids) with agitation. The final solution was allowed to stir for an additional 30 min and films were cast by brush onto a pre-cleaned aluminum foil. The coatings were allowed to cure at ambient conditions for 24 hours prior to microbial testing. Average thickness of films was determined by a QuaNix 4500 (Automation) paint thickness gauge.
(§4) Surface testing: Bacteria were grown at 37° C. Log phase cells were harvested by centrifugation, counted on a hemocytometer using bright field microscopy, pelleted by centrifugation at 4000×g for 10 min, and resuspended in a 0.5% NaCl solution at a concentration of 1×10^7 cfu/mL. To prevent desiccation of the bacteria during testing, a hydration chamber was prepared. The chamber consisted of a sterile 3×3 in gauze pad placed in the bottom of a sterile 150×15 mm Petri dish. The gauze pad was saturated with 5 mL of sterile water and the test samples placed on top. A 10 μL aliquot containing, 1×10^5 bacteria was added to each test coating (280 mm^2), and then placed in a hydration chamber at room temperature. After 2 hr of incubation, the remaining bacteria were recovered by placing the coating in a tube containing 5 mL sterile LB media, followed by 30 sec of vortexing. Serial dilutions were carried out, and incubated for 18 hr at 37° C. with agitation. Following incubation, the cultures were examined for the presence of turbidity, indicating bacterial growth. Each coating was tested in triplicate. […] All bacterial challenge procedures were conducted using standard aseptic techniques in a BSL-2 hood.

For data set [3], the system named is Escherichia coli (ATCC 11229). Kind of data set: Surface testing (log kill) of peptide-containing acrylic coatings, Gram-negative. The format is cell-based. The following applies: for Gram Negative Sample 1 Log Kill / Gram Negative Sample 2 Log Kill / Gram Negative Sample 3 Log Kill / Gram Negative Average Log Kill: 2 hr contact; for Gram Negative Sample 1 Log Kill / Gram Negative Sample 2 Log Kill / Gram Negative Sample 3 Log Kill: 1×10^5 bacteria; for Gram Negative Average Log Kill: average of triplicate.
Source text: as §1, §2, §3, §4

Data set [4] is described as follows: Surface energy and contact angle of peptide coatings (sessile drop). The format is physicochemical. The following applies: peptide in acrylic coating; for Critical Surface Energy: calculated from contact angle data; for Contact angle CH2OHCH2OH: ethylene glycol; for Contact angle CH2OHCH2OH / Contact angle CH2I2 / Contact angle H2O: 15 sec after application; for Contact angle CH2I2: methylene iodide; for Contact angle H2O: water. The method, then: Coating preparation: Films were prepared by combining 25 mg of the respective peptide with 4.95 g acrylate resin ([…]® Polycrylic®, a water borne polyacrylate resin, 50% w/w solids) with agitation. The final solution was allowed to stir for an additional 30 min and films were cast by brush onto a pre-cleaned aluminum foil. The coatings were allowed to cure at ambient conditions for 24 hours prior to microbial testing. Average thickness of films was determined by a QuaNix 4500 (Automation) paint thickness gauge. Surface Energy and Contact Angle: Surface energy and contact angle measurements were performed using a VCA 2500 video contact angle system by AST Products, Inc. Contact angle measurements using the sessile drop technique. An image was captured of the interface 15 sec after application and contact angle was measured. Due to the complex nature of coating and difficulty in ascertaining the surface segregating ability of the peptide. The surface contact angle method was used and subsequent critical surface energy calculations were based on the data obtained. In all cases the surface became more hydrophobic as indicated by the significant increase in contact angle for water. […] Upon subsequent analysis, a correlation was observed between critical surface energy and surface antimicrobial properties, especially Gram-positive, and to a much lesser extent Gram-negative.

Data set [5] is described as follows: Surface segregation of peptide, bromophenol blue staining. It counts as physicochemical. The following applies: peptide in acrylic coating; for Molecules Peptide per mm^2 at surface of coating: absorbance at 600 nm. The method, then:
as §3
Surface Segregation of Peptide: Each 280 mm^2 section of the test coating was submerged in 0.5% bromophenol blue for one minute. Coatings were then removed and washed three times with 20 mL di-H2O. Bromophenol blue was then recovered from the test samples using 0.05 M HCl in ethanol. Absorbance at 600 nm was determined using a Cary 5E UV-Vis-NIR (Varian, Walnut Creek, Calif.). Beer's Law was used to determine concentration of bromophenol blue and thus concentration of peptides at the surface of the coatings.
Bromophenol blue has been used extensively to quantify the amount of protein or peptide in a solution (Bonate, Anal Biochem 1988, 175, 300-4; Schosinsky et al., Clin Chem 1987, 33, 223-6). A test method to visualize surface peptide using bromophenol blue was adapted from these solution test methods. To determine the extent which peptides were segregated to the surface of test coatings, each coating was reacted with an aqueous solution containing 0.5% bromophenol blue. This solution provided molar excess of bromophenol blue that was able to undergo an acid-base reaction with the amines of the peptide at a 1:1 ratio. The reaction was then reversed, and the bromophenol blue recovered with […]. The absorbance of this solution at 600 nm was determined and Beer's Law was used to determine the concentration of bromophenol blue (FIG. 2). This could be directly converted into number of peptides at the surface and correlated directly to the effectiveness of each coating.

Data set [6] deals with Gram-positive and Gram-negative bacteria. The conditions noted are these: both Gram-positive and Gram-negative bacteria; Iijima et al. 2003; cited from earlier work.
Another data set deals with eukaryotic cells. The following applies: literature; cited from earlier work.
The mark [7] stands for this setting: 1% (w/w) peptide in acrylic coating.

“Chr-1: Full length antimicrobial peptide Chrysophsin-1 from gills of red sea bream Chrysophrys major, SEQ. ID. NO. 1 (FFWLIKGAIHAGKAIHGLIHRRRH; Chrysophrys major)”: in data set [1], the “MIC Gram +” value is 0.00667 mg of peptide per mL of culture media. In the data set with Escherichia coli, the “MIC Gram −” value was 0.000667 mg of peptide per mL of culture media. For the same substance, in data set [2], the “Surface antimicrobial activity of coating (in words), Gram-positive” value is recorded as “high activity”; the “Gram Positive Sample 1 Log Kill” value turned out to be 4; the “Gram Positive Sample 2 Log Kill” value came to 4; the “Gram Positive Sample 3 Log Kill” value is given as 3. The “Gram Positive Average Log Kill” value in data set [2] is on record as 3.6667. In data set [2] (Gram-positive and Gram-negative together), the “Reduction of bacterial loads by coating” value is on record as “at least 90%”. The “Reduction of Gram-positive bacteria by peptide containing coating” value in data set [2] (after two hours) was 99.9%. Further, in data set [3] (setting [7]), the “Surface antimicrobial activity of coating (in words), Gram-negative” value is “high activity”; the “Gram Negative Sample 1 Log Kill” value stood at 1; the “Gram Negative Sample 2 Log Kill” value was found to be 2; the “Gram Negative Sample 3 Log Kill” value came out at 1. Besides, the “Gram Negative Average Log Kill” value in data set [3] (setting [7]) is 1.3333. Besides, the “Reduction of Gram-negative bacteria by peptide containing coating” value in data set [3] (after two hours) was found to be 90%. Further, in data set [4], the “Critical Surface Energy” value is reported as 131.6 dynes/cm, the “Contact angle CH2OHCH2OH” value was 60.77(±3.35), the “Contact angle CH2I2” value is 69.45(±4.81) and the “Contact angle H2O” value is 53.05(±4.04). Moreover, in data set [5], the “Molecules Peptide per mm^2 at surface of coating” value is 6.8 × 10^13 Molecules Peptide per mm^2. Further, the Antimicrobial activity concentration result in data set [6] is given as “low micromolar”. In addition, the “Toxicity to eukaryotic cells” value in the data set on eukaryotic cells is “varying levels of toxicity”.

As for “Chr-3: Full length antimicrobial peptide Chrysophsin-3 from gills of red sea bream Chrysophrys major, SEQ. ID. NO. 3 (FIGLLISAGKAIHDLIRRRH; Chrysophrys major)”, in data set [1], the “MIC Gram +” value is listed as 0.00667 mg of peptide per mL of culture media. In addition, the “MIC Gram −” value with Escherichia coli is 0.0667 mg of peptide per mL of culture media. In data set [2], the “Surface antimicrobial activity of coating (in words), Gram-positive” value was “moderate activity”; the “Gram Positive Sample 1 Log Kill” value came to 1; the “Gram Positive Sample 2 Log Kill” value was determined as 1; the “Gram Positive Sample 3 Log Kill” value was determined as 1. Further, the “Gram Positive Average Log Kill” value in data set [2] was found to be 1. In addition, in data set [3] (setting [7]), the “Gram Negative Sample 1 Log Kill” value turned out to be 0, the “Gram Negative Sample 2 Log Kill” value came out at 0, the “Gram Negative Sample 3 Log Kill” value is 0 and the “Gram Negative Average Log Kill” value was determined as 0. In data set [4], the “Critical Surface Energy” value is 97.22 dynes/cm, the “Contact angle CH2OHCH2OH” value is recorded as 63.02(±3.51), the “Contact angle CH2I2” value is 64.57(±3.52) and the “Contact angle H2O” value was 43.88(±5.01). For the same substance, in data set [5], the “Peptide at surface of coating, % of total peptide” value is given as “(~1%)” and the “Molecules Peptide per mm^2 at surface of coating” value is listed as 1.9 × 10^13 Molecules Peptide per mm^2. Further, the Antimicrobial activity concentration entry in data set [6] was “low micromolar”. Moreover, in the data set on eukaryotic cells, the “Toxicity to eukaryotic cells” value is reported as “varying levels of toxicity”.

Source of the values: patent publication US8394762B2, “Self-decontaminating coatings containing antimicrobial peptides” (The United States of America, as represented by the …, priority 2010, dated 2013).
